# Tested on: hedgehog signaling pathway
# Test: Gli-Luc Reporter Assay for Hh Pathway Inhibition (TMHh-12 cells, pTA-8×Gli-Luc reporter)
# Format: cell-based, Mouse
# Conditions: Mus musculus, TMHh12, Ag1.5 1 nM; read-out: Hedgehog Inhibition IC50 (nM) (Ag1.5 1 nM)
# Method in brief: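 Mouse TM3 cells stably carrying an 8×Gli-firefly luciferase reporter, in 2% FBS medium; pathway activated with recombinant mouse Shh (8 μg/mL) or Smo agonist, compounds added at varying concentrations for 48 h. Luminescence read; IC50 at 50% signal reduction. Toxicity checked in TM3 cells (CellTiter-Glo) or constitutive-luciferase TM3-Luc cells.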
row,IC50 [nM],SMILES
1,0.25,CS(=O)(=O)CC(=O)N1CCc2c(cccc2Nc2ccc(Cl)c(-c3ncc(-c4ccccc4)[nH]3)c2)C1 [Compound 7]

# Same assay, conditions: Mus musculus, TMHh12, enzymatic and cellular assays for the inhibition of hedgehog signaling pathways; read-out: IC50 Ranges
row,SMILES,IC50 [nM]
1,CC(C)(C(=O)O)C(=O)N1CCc2c(cccc2Nc2ccc(Cl)c(-c3ncc(-c4ccccc4)[nH]3)c2)C1 [Compound 67],1 to 10
2,CS(=O)(=O)CC(=O)N1CCc2c(cccc2Nc2ccc(Cl)c(-c3ncc(-c4ccccc4)[nH]3)c2)C1 [Compound 7],0.001 to 1

# Other lines, results leading:
row,IC50 [nM],SMILES
1,100 to 1000,Cc1ccc(-c2cc(Nc3cccc4c3CCN(C[C@H](O)CO)C4)ccc2C)nn1 [Compound 209]
2,10 to 100,Cc1ccc(Nc2cccc3c2CCN(CCS(C)(=O)=O)C3)nc1-c1ccccn1 [Compound 311]
3,0.001 to 1,Cc1ccc(Nc2cccc3c2CCN(C2CCS(=O)(=O)C2)C3)cc1-c1ncccc1F (stereo not shown) [Compound 268]
4,1 to 10,Cc1ccc(Nc2cccc3c2CCN(C2(CO)CC2)C3)cc1-c1nc2ccccc2[nH]1 [Compound 89]
